Measured values as given in patent US8791072B2 (priority 2011, dated 2014).
Where “and” joins values, the source holds several entries; their conditions need not be identical. Equal values may be shown once. Where no end group is shown, it is not given here.

How the values were obtained:
[1] = test system: neuromuscular junctions in rabbit extraocular muscle; conditions: in vivo; cited from earlier work
[2] = test system: neuromuscular junctions in orbicularis oculi muscle; conditions: rabbit, in vivo
[3] = test system: neuromuscular junction; conditions: in vivo; cited from earlier work
[4] = test system: superior rectus muscle; conditions: rabbit, in vivo

Row | Substance | change in number of neuromuscular junctions in the treated area [1] | combined total muscle neuromuscular junction density, orbicularis oculi muscle [2] | increase of combined total muscle neuromuscular junction density [2] [fold] | neuromuscular junction density, preseptal region [2] | neuromuscular junction density, pretarsal region [2] | preseptal neuromuscular junction density relative to control [2] | return of normal neuromuscular junction activity [3] [%] | muscle force in response to electrical stimulation [4] | neuromuscular junction density compared to saline control (in words) [2] | neuromuscular junction density, orbicularis oculi muscle [2]
1 | botulinum toxin A | doubling of neuromuscular junctions | 5.9±0.43 /mm^2 | ~3 | 4.4±01 /mm^2 and 2.9±0.4 /mm^2 and 5.23±0.7 /mm^2 | 4.0±0.21 /mm^2 and 5.7±0.8 /mm^2 | between about two and three times greater than control | 20 | variable response, with some showing force equal to the saline-treated control muscles | – | –
2 | corticotropin releasing factor (SEEPPISLDLTFHLLREVLEMARAEQLAQQAHSNRKLMEII; ends and bridges not checked; UniProt P06850 154-194, looked up) [CRF] | – | – | – | – | – | – | – | – | not significantly different from the density in the control orbicularis oculi muscles | 2.39±0.23 /mm^2
